# Paper PMC10320843 (2023)
# Key:
# [1] = tested on: F21T (DNA, G4) GGGTTAGGGTTAGGGTTAGGG; assay: FRET-melting; conditions: K+ (CacoK10, Table S1); CacoK10 buffer; 1 μM compound, 0.2 μM nucleic acid; no competitor
# [2] = tested on: F-Myc-T (DNA, G4) GAGGGTGGGGAGGGTGGGGAAG; assay: FRET-melting; conditions: K+ (CacoK1, Table S1); CacoK1 buffer; 1 μM compound, 0.2 μM nucleic acid; no competitor
# [3] = tested on: F-Kit2-T (DNA, G4) CGGGCGGGCGCGAGGGAGGGG; assay: FRET-melting; conditions: buffer not stated in main text
# [4] = tested on: 5'Cy5-Myc (DNA, G4) GAGGGTGGGGAGGGTGGGGAAG; assay: Cy5 fluorescence quenching titration; conditions: 50 mM TrisHCl/Triton buffer (Table S1), 25 °C; 20 nM DNA; apparent
# [5] = tested on: F-NRAS-T (RNA, G4) GGGAGGGGCGGGUCUGGG; assay: FRET-melting; conditions: 1 μM compound, 0.2 μM RNA; no competitor; buffer not stated
# [6] = tested on: F-VEGF-T (RNA, G4) GGAGGAGGGGAGGAGGA; assay: FRET-melting; conditions: K+ (CacoK1, Table S1); CacoK1 buffer; 1 μM compound, 0.2 μM nucleic acid; no competitor
# [7] = tested on: F-TERRA-T (RNA, G4) GGGUUAGGGUUAGGGUUAGGG; assay: FRET-melting; conditions: K+ (CacoK1, Table S1); CacoK1 buffer; 1 μM compound, 0.2 μM nucleic acid; no competitor
# [8] = tested on: G4-strand (97-nt ODN) (DNA, G4) TAGCCATTCAGCCGTAACAGGCAGTGGAAGAGAGACAGACAGGGCAGGGCAGGGCAGGGCAGTACAGTAGAACCTAATGGTGTTTGATGGTATCTAA; assay: streptavidin bead pull-down, qPCR (SYBR green); conditions: 40 μM compound, 4 μM DNA; fluorescence difference from no TASQ
# [9] = tested on: F-22AG (DNA, G4) AGGGTTAGGGTTAGGGTTAGGG; assay: streptavidin bead pull-down, FAM fluorescence; conditions: Mg2+ (concentration in Table S1); 20 mM TrisHCl/MgCl2 buffer, 25 °C; 10 μM compound, 1 μM nucleic acid; no TASQ = 1
# [10] = tested on: F-TERRA (RNA, G4) GGGUUAGGGUUAGGGUUAGGG; assay: streptavidin bead pull-down, FAM fluorescence; conditions: Mg2+ (concentration in Table S1); 20 mM TrisHCl/MgCl2 buffer, 25 °C; 10 μM compound, 1 μM nucleic acid; no TASQ = 1
# [11] = tested on: F-NRAS (RNA, G4) GGGAGGGGCGGGUCUGGG; assay: streptavidin bead pull-down, FAM fluorescence; conditions: Mg2+ (concentration in Table S1); 20 mM TrisHCl/MgCl2 buffer, 25 °C; 10 μM compound, 1 μM nucleic acid; no TASQ = 1
# [12] = tested on: F-VEGF (RNA, G4) GGAGGAGGGGAGGAGGA; assay: streptavidin bead pull-down, FAM fluorescence; conditions: Mg2+ (concentration in Table S1); 20 mM TrisHCl/MgCl2 buffer, 25 °C; 10 μM compound, 1 μM nucleic acid; no TASQ = 1
# [13] = tested on: F-duplex (DNA, hairpin) TATAGCTATATTTTTTTATAGCTATA; assay: streptavidin bead pull-down, FAM fluorescence; conditions: Mg2+ (concentration in Table S1); 20 mM TrisHCl/MgCl2 buffer, 25 °C; 10 μM compound, 1 μM DNA; no TASQ = 1
# [14] = tested on: F-Myc (DNA, G4) GAGGGTGGGGAGGGTGGGGAAG; assay: streptavidin bead pull-down, FAM fluorescence; conditions: Mg2+ (concentration in Table S1); 20 mM TrisHCl/MgCl2 buffer, 25 °C; 10 μM compound, 1 μM nucleic acid; no TASQ = 1
Structure (SMILES),ΔT1/2 [1],ΔT1/2 [2],ΔT1/2 [3],appKD [4],ΔT1/2 [5],ΔT1/2 [6],ΔT1/2 [7],ΔFI [8],fold enrichment [9],fold enrichment [10],fold enrichment [11],fold enrichment [12],fold enrichment [13],fold enrichment [14]
C#CCCCC(=O)NCC1CN(CCCCCNC(=O)CN(CCN)C(=O)Cn2cnc3c(=O)[nH]c(N)nc32)CCN(CCCCCNC(=O)CN(CCN)C(=O)Cn2cnc3c(=O)[nH]c(N)nc32)CCN(CCCCCNC(=O)CN(CCN)C(=O)Cn2cnc3c(=O)[nH]c(N)nc32)CCN1CCCCCNC(=O)CN(CCN)C(=O)Cn1cnc2c(=O)[nH]c(N)nc21 (centres unmarked),2.5 ± 0.2 °C,5.3 ± 0.3 °C,5.8 ± 0.2 °C,1.44 ± 0.1 µM,11.8 ± 0.7 °C,11.9 ± 0.4 °C,11.0 ± 0.9 °C,–,–,–,–,–,–,–
C[n+]1cc(NC(=O)c2ccc3ccc4ccc(C(=O)Nc5cc6ccccc6[n+](C)c5)nc4c3n2)cc2ccccc21,–,–,–,0.0577 ± 0.0002 µM,–,–,–,–,–,–,–,–,–,–
NCCN(CC(=O)NCCCCCN1CCN(CCCCCNC(=O)CN(CCN)C(=O)Cn2cnc3c(=O)[nH]c(N)nc32)CCN(CCCCCNC(=O)CN(CCN)C(=O)Cn2cnc3c(=O)[nH]c(N)nc32)C(CNC(=O)CCCC[C@@H]2SC[C@@H]3NC(=O)N[C@@H]32)CN(CCCCCNC(=O)CN(CCN)C(=O)Cn2cnc3c(=O)[nH]c(N)nc32)CC1)C(=O)Cn1cnc2c(=O)[nH]c(N)nc21 (some centres unmarked),–,–,–,1.01 ± 0.1 µM,–,–,–,457,15.9 ± 0.9 fold,4.0 ± 0.0 fold,5.2 ± 0.9 fold,8.2 ± 0.2 fold,0.9 ± 0.2 fold,21.5 ± 0.1 fold
[N-]=[N+]=NCCCCCC(=O)NCC1CN(CCCCCNC(=O)CN(CCN)C(=O)Cn2cnc3c(=O)[nH]c(N)nc32)CCN(CCCCCNC(=O)CN(CCN)C(=O)Cn2cnc3c(=O)[nH]c(N)nc32)CCN(CCCCCNC(=O)CN(CCN)C(=O)Cn2cnc3c(=O)[nH]c(N)nc32)CCN1CCCCCNC(=O)CN(CCN)C(=O)Cn1cnc2c(=O)[nH]c(N)nc21 (centres unmarked),2.2 ± 0.3 °C,6.4 ± 0.2 °C,7.7 ± 1.0 °C,0.90 ± 0.1 µM,14.6 ± 1.1 °C,11.3 ± 0.4 °C,12.4 ± 0.6 °C,–,–,–,–,–,–,–
